In article PMC3781304 (American Journal of Cardiovascular Drugs, 2013):
“Also recorded” adds a separate entry of the source.

Experiments:
[1] = Quinidine study: safety, treatment-emergent adverse events; conditions: for Fecal occult bleeding (TEAE): printed under most frequent and under bleeding-related TEAEs
[2] = Edoxaban administered alone, pharmacokinetics across the 6 studies
[3] = Digoxin drug-drug interaction study: edoxaban pharmacokinetics
[4] = Amiodarone drug-drug interaction study: edoxaban pharmacokinetics; conditions: human, in vivo, 60 mg
[5] = Atorvastatin drug-drug interaction study: edoxaban pharmacokinetics; conditions: human, in vivo, 60 mg
[6] = Verapamil study: safety, treatment-emergent adverse events
[7] = Digoxin study: safety, treatment-emergent adverse events; conditions: for Fecal occult bleeding (TEAE): printed under most frequent and under bleeding-related TEAEs
[8] = Verapamil drug-drug interaction study: edoxaban pharmacokinetics
[9] = Atorvastatin study: safety, treatment-emergent adverse events
[10] = Tolerability across the 6 studies; assay type: in vivo, healthy subjects (human); conditions: edoxaban alone or coadministered with the 6 cardiovascular drugs
[11] = Dronedarone study: safety, treatment-emergent adverse events
[12] = cited from earlier work
[13] = Quinidine drug-drug interaction study: edoxaban pharmacokinetics
[14] = Amiodarone study: safety, treatment-emergent adverse events; assay type: in vivo, healthy volunteers (human)
[15] = Dronedarone drug-drug interaction study: edoxaban pharmacokinetics

In the case of CN1CCc2nc(C(=O)N[C@@H]3C[C@@H](C(=O)N(C)C)CC[C@@H]3NC(=O)C(=O)Nc3ccc(Cl)cn3)sc2C1 [Edoxaban, edoxaban], the “Blood creatinine increased (TEAE)” value [1] is reported as 0 n (%), the “Chest pain (TEAE)” value [1] is reported as 1 (2.7 %) n (%) and the “Epistaxis (bleeding-related TEAE)” value [1] is reported as 0 n (%). The “Headache (TEAE)” value [1] was 0 n (%), the “Hematochezia (bleeding-related TEAE)” value [1] was 1 (2.7 %) n (%) and the “Irregular menstruation (bleeding-related TEAE)” value [1] was 1 (2.7 %) n (%). The “Menorrhagia (bleeding-related TEAE)” value [1] was 1 (2.7 %) n (%), the “Nausea (TEAE)” value [1] was 0 n (%) and the “Subjects reporting ≥1 TEAE” value [1] was 5 (13.5 %) n (%). The “Subjects reporting ≥1 treatment-related TEAE” value [1] was 3 (8.1 %) n (%), the “Fecal occult bleeding (TEAE)” value [1] was 2 (5.4 %) n (%) and the “Time of peak edoxaban concentrations postdose” value ([2]; across the studies) was 1 to 3 h. For the same compound, the AUC(0-inf) ([2]; human, in vivo, 60 mg) was 1580 to 1970 ng·h/mL, the Cmax ([2]; human, in vivo, 60 mg) was 223 to 296 ng/mL and the AUC ([3]; human, in vivo, 60 mg) was 1960 ng·h/mL. For the same compound, the concentration at 24 h ([3]; human, in vivo, 60 mg) was 24.5 ng/mL, the half-life ([3]; human, in vivo, 60 mg) was 9.83 h and the AUC(0-inf) [4] was 1740 ng·h/mL. The AUC(0-t) [4] was 1720 ng·h/mL, the Cmax [4] was 251 ng/mL and the half-life [4] was 12.2 h. The AUC(0-inf) [5] was 1970 ng·h/mL, the Cmax [5] was 282 ng/mL and the Tmax [5] was 1.02 h. The concentration at 24 h [5] was 12.6 ng/mL, the half-life [5] was 12 h and the “Constipation (TEAE)” value [6] was 1 (3.0 %) n (%). For the same compound, the “Epistaxis (bleeding-related TEAE)” value [6] was 0 n (%), the “Fecal occult bleeding (bleeding-related TEAE)” value [6] was 1 (3.0 %) n (%) and the “Headache (TEAE)” value [6] was 0 n (%). For the same compound, the “Menorrhagia (bleeding-related TEAE)” value [6] was 0 n (%), the “Occular hyperemia (TEAE)” value [6] was 0 n (%) and the “Subjects reporting ≥1 TEAE” value [6] was 4 (12.1 %) n (%). The “Subjects reporting ≥1 treatment-related TEAE” value [6] was 1 (3.0 %) n (%), the “Dizziness (TEAE)” value [7] was 1 (4.2 %) n (%) and the “Headache (TEAE)” value [7] was 0 n (%). The “Nausea (TEAE)” value [7] was 1 (4.2 %) n (%), the “Subjects reporting ≥1 TEAE” value [7] was 19 (79.2 %) n (%) and the “Subjects reporting ≥1 treatment-related TEAE” value [7] was 1 (4.2 %) n (%). For the same compound, the “Fecal occult bleeding (TEAE)” value [7] was 1 (4.2 %) n (%), the AUC(0-t) ([8]; human, in vivo, 60 mg) was 1440 ng·h/mL and the Cmax ([8]; human, in vivo, 60 mg) was 226 ng/mL. It also gave a Tmax ([8]; human, in vivo, 60 mg) of 1.48 h, a concentration at 24 h ([8]; human, in vivo, 60 mg) of 11 ng/mL and a half-life ([8]; human, in vivo, 60 mg) of 7.43 h. For the same compound, the “Constipation (TEAE)” value [9] was 0 n (%), the “Dysmenorrhea (bleeding-related TEAE)” value [9] was 1 (3.1%) n (%) and the “Fecal occult bleeding (bleeding-related TEAE)” value [9] was 2 (6.3%) n (%). The “Nasal congestion (TEAE)” value [9] was 0 n (%), the “Pharyngolaryngeal pain (TEAE)” value [9] was 0 n (%) and the “Subjects reporting ≥1 TEAE” value [9] was 4 (13.3%) n (%). For the same compound, the “Subjects reporting ≥1 treatment-related TEAE” value [9] was 1 (3.3%) n (%), the “Tolerability (in words)” value [10] was “well tolerated” and the “Bleeding-related TEAEs” value [11] was 0 n (%). The “Headache (TEAE)” value [11] was 0 n (%), the “Subjects reporting ≥1 TEAE” value [11] was 0 n (%) and the “Subjects reporting ≥1 treatment-related TEAE” value [11] was 0 n (%). The “Systemically absorbed drug eliminated via renal excretion” value [12] was “approximately 50%”, the “Mean terminal elimination half-life (t½)” value ([12]; healthy volunteers) was 8.75 to 10.4 h and the “Time of peak concentrations postdose” value ([12]; healthy volunteers) was 1 to 2 h. It also gave an AUC(0-inf) ([13]; human, in vivo, 60 mg) of 1580 ng·h/mL, a Cmax ([13]; human, in vivo, 60 mg) of 223 ng/mL and a Tmax ([13]; human, in vivo, 60 mg) of 1.48 h. The concentration at 24 h ([13]; human, in vivo, 60 mg) was 11 ng/mL, the half-life ([13]; human, in vivo, 60 mg) was 6.43 h and the AUC(0-t) ([13]; human, in vivo, 60 mg, Edoxaban AUC0–24, quinidine study, mean (SD)) was 1450 ng·h/mL. For the same compound, the AUC(0-t) ([13]; human, in vivo, 60 mg, Edoxaban AUClast, quinidine study, mean (SD)) was 1440 ng·h/mL, the “Edoxaban AUC0–24” value ([13]; quinidine study, mean (SD)) was 1449.2 (328.6) ng·h/mL and the “Contact dermatitis (TEAE)” value [14] was 0 n (%). The “Diarrhea (TEAE)” value [14] was 1 (3.3 %) n (%), the “Fecal occult bleeding (bleeding-related TEAE)” value [14] was 0 n (%) and the “Gingival bleeding (bleeding-related TEAE)” value [14] was 0 n (%). The “Menorrhagia (bleeding-related TEAE)” value [14] was 0 n (%), the “Pain in extremity (TEAE)” value [14] was 1 (3.3 %) n (%) and the “Subjects reporting ≥1 TEAE” value [14] was 5 (16.7 %) n (%). It also gave a half-life ([15]; human, in vivo, 60 mg) of 10.2 h.
With C[C@H]1O[C@@H](O[C@H]2[C@@H](O)C[C@H](O[C@H]3[C@@H](O)C[C@H](O[C@H]4CC[C@@]5(C)[C@H](CC[C@@H]6[C@@H]5C[C@@H](O)[C@]5(C)[C@@H](C7=CC(=O)OC7)CC[C@]65O)C4)O[C@@H]3C)O[C@@H]2C)C[C@H](O)[C@@H]1O [Digoxin, digoxin] the “Effect of coadministration on edoxaban exposure/PK (in words)” value ([3]; digoxin study) was “minimal effects; also recorded: relatively minor effects; also recorded: did not significantly affect exposure”, the “Dizziness (TEAE)” value [7] was 0 n (%) and the “Headache (TEAE)” value [7] was 2 (8.3 %) n (%). The “Nausea (TEAE)” value [7] was 1 (4.2 %) n (%), the “Subjects reporting ≥1 TEAE” value [7] was 8 (33.3 %) n (%) and the “Subjects reporting ≥1 treatment-related TEAE” value [7] was 1 (4.2 %) n (%). The “Fecal occult bleeding (TEAE)” value [7] was 3 (12.5 %) n (%).
In the case of CCCCc1oc2ccccc2c1C(=O)c1cc(I)c(OCCN(CC)CC)c(I)c1 [Amiodarone, amiodarone], the “Contact dermatitis (TEAE)” value [14] is reported as 2 (6.9%) n (%), the “Diarrhea (TEAE)” value [14] is reported as 0 n (%) and the “Fecal occult bleeding (bleeding-related TEAE)” value [14] is reported as 0 n (%). The “Gingival bleeding (bleeding-related TEAE)” value [14] was 0 n (%), the “Menorrhagia (bleeding-related TEAE)” value [14] was 0 n (%) and the “Pain in extremity (TEAE)” value [14] was 0 n (%). The “Subjects reporting ≥1 TEAE” value [14] was 7 (24.1 %) n (%) and the “Subjects reporting ≥1 treatment-related TEAE” value [14] was 1 (3.4 %) n (%).
In the case of C=C[C@H]1C[N@@]2CC[C@H]1C[C@@H]2[C@@H](O)c1ccnc2ccc(OC)cc12 [Quinidine, quinidine], the “Blood creatinine increased (TEAE)” value [1] is reported as 1 (2.8 %) n (%), the “Chest pain (TEAE)” value [1] is reported as 0 n (%) and the “Epistaxis (bleeding-related TEAE)” value [1] is reported as 1 (2.8 %) n (%). For the same compound, the “Headache (TEAE)” value [1] was 3 (8.3 %) n (%), the “Hematochezia (bleeding-related TEAE)” value [1] was 0 n (%) and the “Irregular menstruation (bleeding-related TEAE)” value [1] was 0 n (%). The “Menorrhagia (bleeding-related TEAE)” value [1] was 0 n (%), the “Nausea (TEAE)” value [1] was 2 (5.6 %) n (%) and the “Subjects reporting ≥1 TEAE” value [1] was 11 (30.6 %) n (%). For the same compound, the “Subjects reporting ≥1 treatment-related TEAE” value [1] was 4 (11.1 %) n (%), the “Subjects withdrawn with QTc prolongation” value ([1]; after quinidine dosing) was 1 subject and the “Fecal occult bleeding (TEAE)” value [1] was 0 n (%). For the same compound, the “Effect of coadministration on edoxaban exposure (in words)” value (from here on “Effect … on edoxaban exposure (in words)”) ([13]; quinidine study) was “increased edoxaban exposure; also recorded: significantly increased exposure”.
In the case of CC(C)c1c(C(=O)Nc2ccccc2)c(-c2ccccc2)c(-c2ccc(F)cc2)n1CC[C@@H](O)C[C@@H](O)CC(=O)O [Atorvastatin, atorvastatin], the “Constipation (TEAE)” value [9] is reported as 2 (6.3%) n (%), the “Dysmenorrhea (bleeding-related TEAE)” value [9] is reported as 0 n (%) and the “Fecal occult bleeding (bleeding-related TEAE)” value [9] is reported as 0 n (%). The “Nasal congestion (TEAE)” value [9] was 1 (3.1%) n (%), the “Pharyngolaryngeal pain (TEAE)” value [9] was 1 (3.1%) n (%) and the “Subjects reporting ≥1 TEAE” value [9] was 6 (18.8%) n (%). The “Subjects reporting ≥1 treatment-related TEAE” value [9] was 3 (9.4%) n (%).
With COc1ccc(CCN(C)CCCC(C#N)(c2ccc(OC)c(OC)c2)C(C)C)cc1OC (stereo not drawn) [Verapamil, verapamil] the “Constipation (TEAE)” value [6] was 4 (12.1 %) n (%), the “Epistaxis (bleeding-related TEAE)” value [6] was 0 n (%) and the “Fecal occult bleeding (bleeding-related TEAE)” value [6] was 0 n (%). The “Headache (TEAE)” value [6] was 3 (9.1 %) n (%), the “Menorrhagia (bleeding-related TEAE)” value [6] was 1 (3.0 %) n (%) and the “Occular hyperemia (TEAE)” value [6] was 1 (3.0 %) n (%). For the same compound, the “Subjects reporting ≥1 TEAE” value [6] was 13 (39.4 %) n (%), the “Subjects reporting ≥1 treatment-related TEAE” value [6] was 9 (27.2 %) n (%) and the “Subjects withdrawn with abnormal ECG” value ([6]; following verapamil monotherapy) was 3 subjects. The “Effect … on edoxaban exposure (in words)” value ([8]; verapamil study) was “increased edoxaban exposure; also recorded: significantly increased exposure”.
In the case of CCCCc1oc2ccc(NS(C)(=O)=O)cc2c1C(=O)c1ccc(OCCCN(CCCC)CCCC)cc1 [Dronedarone, dronedarone], the “Bleeding-related TEAEs” value [11] is reported as 0 n (%), the “Headache (TEAE)” value [11] is reported as 0 n (%) and the “Subjects reporting ≥1 TEAE” value [11] is reported as 4 (11.8 %) n (%). For the same compound, the “Subjects reporting ≥1 treatment-related TEAE” value [11] was 1 (2.9 %) n (%) and the “Effect … on edoxaban exposure (in words)” value ([15]; dronedarone study) was “increased edoxaban exposure; also recorded: significantly increased exposure”.
